Data as given in article PMC6099921, “Microwave Optimized Synthesis of N-(adamantan-1-yl)-4-[(adamantan-1-yl)-sulfamoyl]benzamide and Its Derivatives for Anti-Dengue Virus Activity” (Molecules : A Journal of Synthetic Chemistry and Natural …, 2018).
Like-named read-outs stand apart in the source and are kept apart here.

Key:
DENV2 = experiment: Cell-based Flavivirus Immunodetection (CFI) assay, DENV envelope protein production in A549 cells; set-up: species or system dengue virus serotype 2; details: ± standard deviation, at least three independent experiments
Method: (§1) The antiviral activity of the test compounds (1, 3, 6, and 7) was examined in the Cell-based Flavivirus Immuno-assay (CFI assay). The CFI assay is based on a quantitative immunodetection of the DENV envelope protein production in A549 cells. Infection of the A549 cells by the DENV2 was allowed to occur in the presence of each test compound, after which virus load was measured by quantifying the amount of envelope protein that is produced using enzyme linked immunosorbent assay (ELISA). To ensure that the inhibition of the envelope production was not due to cell death, the cytotoxicity of each test compound was assessed via the cell viability assay.
A549 cells (catalog no. CCL-185; ATCC, Manassas, VA, USA) were maintained in Ham’s F-12 medium with 10% fetal bovine serum (FBS) and 1% penicillin-streptomycin at 37 °C in 5% CO2. The DENV2 used in this study was prepared by inoculating monolayers of C6/36 cells grown in RPMI 1640 medium with 5% FBS and 1% penicillin-streptomycin. After incubation at 28 °C for four to five days, the cell culture supernatant was collected after clarification of cell debris and was stored at −80 °C until used.
A549 cells were trypsinised and diluted to a concentration of 2 × 10^5 cells/mL in culture medium containing 2% FBS. A total of 100 μL of the cell suspension (2 × 10^4 cells) was dispensed into each well of a 96-well tissue culture plate. The cells were grown overnight in culture medium at 37 °C with 5% CO2 and were then infected with the DENV at a multiplicity of infection of 0.3 in the presence of different concentrations of the test compounds for 1 h at 37 °C with 5% CO2. The virus inoculum was removed and then replaced with fresh medium containing the test compounds and the cells were incubated at 37 °C with 5% CO2 for 48 h. The cells were washed once with phosphate-buffered saline (PBS) and fixed with cold methanol for 10 min. After the fixed cells were washed twice with PBS, they were blocked with PBS containing 1% FBS and 0.05% Tween 20 for 1 h at room temperature. A primary antibody (antibody 4G2) solution was then added, and the mixture was incubated for 3 h. The cells were washed three times with PBS, followed by incubation for 1 h with horseradish peroxidase-conjugated anti-mouse immunoglobulin G. After the cells were washed three times with PBS, 3,3′,5,5′-tetramethylbenzidine substrate solution was added to each well, and the reaction was stopped by adding 0.5 M sulfuric acid. The absorbencies of the solutions were measured with a Tecan Safire II plate reader (Tecan Group Ltd., Männedorf, Switzerland) at 450 nm for viral antigen quantification. Dose-response curves were plotted from the mean absorbance versus the log of the concentration of the test compound. The IC50, that is, the concentration of the test compound that inhibited the level of viral envelope protein production by 50%, was calculated by nonlinear regression analysis. All of the experiments were conducted in triplicate.

[1] = Celltiter-Glo Luminescent cell viability assay (cytotoxicity); format: cell-based; details: human
Method: as §1
(§2) The cytotoxicities of the test compounds were measured by a Celltiter-Glo Luminescent cell viability assay, according to the manufacturer’s protocol (catalog no. G7570; Promega, Madison, WI, USA). The A549 cell preparation and compound addition were performed, as described above under the “CFI assay”. After 48 h of incubation, the luminescent signals for cells treated with the test compounds were compared to those for cells treated with dimethyl sulfoxide (DMSO) to determine the CC50. […] All of the experiments were conducted in triplicate.

DENV [2] = system: DENV; set-up: method as in ref 8 (Koff et al., 1980); details: all four serotypes, ref 8 (Koff et al., 1980); cited from earlier work
DENV [3] = system: DENV; set-up: method as in ref 9 (Lin and Chen, 2016); details: small scale clinical study; ref 9 (Lin and Chen, 2016); cited from earlier work
A549 cells = experiment: Celltiter-Glo Luminescent cell viability assay (cytotoxicity); format: cell-based; details: A549 cells, 48 h, maximum concentration tested 100 µM
Method: as §1, §2

DENV2 NS2B/NS3 protease = system: DENV2 NS2B/NS3 protease; set-up: method as in ref 6 (Timiri et al., 2015); details: in vitro; ref 6 (Timiri et al., 2015); cited from earlier work
[4] = Dengue virus, DENV2, A549, 48 h, CFI assay, A549 cells infected with DENV2, MOI 0.3, 48 h, read-out: DENV2 IC50
[5] = A549 cells, 48 h, maximum concentration tested 100 µM, read-out: CC50

## NC12CC3CC(CC(C3)C1)C2 [Compound 1, amantadine, reference compound]
DENV2; CFI assay, A549 cells infected with DENV2, MOI 0.3, 48 h
  DENV2 IC50: did not show significant DENV2 activity
DENV2; [4]
  IC50: > 100 µM
[1]; CC50
  CC50 at 48 h: > 100 µM
DENV [2]
  anti-DENV activity in vitro: anti-DENV activity on all four serotypes
DENV [3]
  treatment effectiveness in DENV infected patients: effective treatment option

## O=C(NC12CC3CC(CC(C3)C1)C2)c1ccc(S(=O)(=O)NC23CC4CC(CC(C4)C2)C3)cc1 [Compound 3, N-(adamantan-1-yl)-4-[(adamantan-1-yl)sulfamoyl]benzamide]
DENV2; CFI assay, A549 cells infected with DENV2, MOI 0.3, 48 h, read-out: DENV2 IC50
  IC50: 22.4 ± 7.7 µM
DENV2; Dengue virus, DENV2, A549, 48 h, read-out: DENV2 IC50, CFI assay, A549 cells infected with DENV2, MOI 0.3, 48 h
  IC50: 22.2 µM
[1]; [5]
  CC50 at 48 h: < 100 µM
A549 cells
  CC50: > 100 µM

## O=C(NC12CC3CC(CC(C3)C1)C2)c1ccccc1 [Compound 6, N-(adamantan-1-yl)benzamide]
DENV2; [4]
  IC50: > 100 µM
[1]; [5]
  CC50 at 48 h: > 100 µM

## NS(=O)(=O)c1ccc(C(=O)NC23CC4CC(CC(C4)C2)C3)cc1 [Compound 7, N-(adamantan-1-yl)-4-sulfamoylbenzamide]
DENV2; [4]
  IC50: 42.8 ± 8.6 µM
[1]; [5]
  CC50 at 48 h: < 100 µM
A549 cells
  CC50: > 100 µM

## CCc1ccc(NS(=O)(=O)c2ccc(N3C(=O)c4ccccc4C3=O)cc2)cc1 [SF1]
DENV2 NS2B/NS3 protease
  IC50: 48.2 µM

## O=C1c2ccccc2C(=O)N1c1ccc(S(=O)(=O)Nc2cccc3ccccc23)cc1 [SF2]
DENV2 NS2B/NS3 protease
  IC50: 122 µM
